Laboratory results published in patent US20190292189A1, “LIM KINASE INHIBITORS” (VIRONGY, LLC, priority 2016, published 2019).
Read-outs that look alike come from different tables or passages of the source.

Assays:
ROCK-II = ROCK-II (Homo sapiens, UniProt O75116); assay: ROCK-II biochemical counter-screen; conditions: means of ≥2 experiments, read-out: IC50 (nM) ROCK-II
ROCK-I = ROCK-I (Homo sapiens, UniProt Q13464); assay: ROCK-I biochemical counter-screen; conditions: Table 6; read-out: Biochemical Inhibition IC50 (nM) ROCK-I
P450 2C9 = P450 2C9 (Homo sapiens, UniProt P11712); assay: P450 inhibition at 10 μM; assay type: in vitro ADME
P450 2D6 = P450 2D6 (Homo sapiens, UniProt P10635); assay: P450 inhibition at 10 μM; assay type: in vitro ADME
P450 3A4 = P450 3A4 (Homo sapiens, UniProt P08684); assay: P450 inhibition at 10 μM; assay type: in vitro ADME
[1] = Microsomal stability, human liver microsomes; assay type: in vitro ADME
[2] = Microsomal stability, rat liver microsomes; assay type: in vitro ADME
[3] = Plasma pharmacokinetics studies on rats; conditions: rats; for AUC (iv) / Cl (iv) / T1/2 (iv) / Yd (iv) / Cmax: iv dosing 1 mg/kg; for F (%) (po): po dosing 2 mg/kg; for Cmax: read-out: Cmax (iv)
Experimental: In vivo pharmacokinetics (PK) studies were conducted for selected compounds during the whole optimization at various stages in order to identify structural elements that are favorable for in vivo applications, and/or to evaluate the feasibility of optimized Limk inhibitors for animal studies.

P450 1A2 = biological target: T1, P450 1A2 (Homo sapiens, UniProt P05177)
T1 sequence (P05177 1-516): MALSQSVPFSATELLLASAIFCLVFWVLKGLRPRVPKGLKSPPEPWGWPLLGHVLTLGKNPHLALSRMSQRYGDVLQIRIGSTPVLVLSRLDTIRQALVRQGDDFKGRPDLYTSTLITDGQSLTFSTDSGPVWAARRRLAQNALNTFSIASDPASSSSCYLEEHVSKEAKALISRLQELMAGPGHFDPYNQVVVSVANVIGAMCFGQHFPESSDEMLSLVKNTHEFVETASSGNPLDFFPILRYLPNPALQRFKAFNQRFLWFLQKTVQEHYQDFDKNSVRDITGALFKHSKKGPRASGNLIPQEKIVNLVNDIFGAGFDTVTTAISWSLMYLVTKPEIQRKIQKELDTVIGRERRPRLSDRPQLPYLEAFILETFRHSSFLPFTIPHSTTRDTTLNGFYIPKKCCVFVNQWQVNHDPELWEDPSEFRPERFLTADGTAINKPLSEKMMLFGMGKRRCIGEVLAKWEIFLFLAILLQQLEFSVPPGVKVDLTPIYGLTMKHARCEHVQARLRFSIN

Limk1 = Limk1 (Homo sapiens, UniProt P53667); assay: Limk1 biochemical assay (Reaction Biology, 10-dose IC50); parameters: His; purchased Reaction Biology Corporation; host or cells: insect cells
JNK3 = JNK3 (Homo sapiens, UniProt P53779); assay: JNK3 biochemical counter-screen; conditions: Table 6; read-out: Biochemical Inhibition IC50 (nM) JNK3
[4] = system: cofilin phosphorylation in A7r5 cells; assay: In-cell Western assay of cofilin phosphorylation in A7r5 cells; assay type: cell-based
Experimental: A7r5 (15,000 cells/well) were plated in a clear-bottomed Packard View black 96-well plate in 100 μl of 10% FBS DMEM:F12 medium and were allowed to attach overnight. The next day, the cells were serum starved in 1% FBS DMEM medium for 2 hr and then treated with the compounds for 1 hr. […] Next day, they were washed twice with PBS-0.1% Tween 20 (PBST) washing solution for 5 min each at room temperature on the orbital shaker, followed by one wash with Licor Blocking Buffer containing 0.05% Tween-20 for 5 min on the shaker at RT. The cells were then incubated with secondary antibody goat anti-rabbit IR800 (1:500 dilution) for 1 hr at RT in the dark (covered the plate with foil) in Licor blocking buffer-containing Tween-20. Following this, cells were washed twice with PBST for 5 min each at room temperature and then once with Licor blocking buffer-containing 0.05% Tween-20. The wells were then incubated with ToPro 3 stain (nucleic acid staining), diluted 1:4000 in Licor blocking buffer or Licor blocking buffer with 0.05% Tween-20 for 30 min at room temperature in the dark. Finally the plates were washed twice with PBS and analyzed using the Odyssey LICOR Infrared Scanner.

HIV-1(NL4-3) = assay: microbe, parasite or virus in culture; assay type: cell-based; conditions: […]; dosages with no detectable cytotoxicity
[5] = Table 4, means of ≥2 experiments, read-out: IC50 (nM) Limk1

Chain of ROCK-II (O75116 whole entry, species assumed): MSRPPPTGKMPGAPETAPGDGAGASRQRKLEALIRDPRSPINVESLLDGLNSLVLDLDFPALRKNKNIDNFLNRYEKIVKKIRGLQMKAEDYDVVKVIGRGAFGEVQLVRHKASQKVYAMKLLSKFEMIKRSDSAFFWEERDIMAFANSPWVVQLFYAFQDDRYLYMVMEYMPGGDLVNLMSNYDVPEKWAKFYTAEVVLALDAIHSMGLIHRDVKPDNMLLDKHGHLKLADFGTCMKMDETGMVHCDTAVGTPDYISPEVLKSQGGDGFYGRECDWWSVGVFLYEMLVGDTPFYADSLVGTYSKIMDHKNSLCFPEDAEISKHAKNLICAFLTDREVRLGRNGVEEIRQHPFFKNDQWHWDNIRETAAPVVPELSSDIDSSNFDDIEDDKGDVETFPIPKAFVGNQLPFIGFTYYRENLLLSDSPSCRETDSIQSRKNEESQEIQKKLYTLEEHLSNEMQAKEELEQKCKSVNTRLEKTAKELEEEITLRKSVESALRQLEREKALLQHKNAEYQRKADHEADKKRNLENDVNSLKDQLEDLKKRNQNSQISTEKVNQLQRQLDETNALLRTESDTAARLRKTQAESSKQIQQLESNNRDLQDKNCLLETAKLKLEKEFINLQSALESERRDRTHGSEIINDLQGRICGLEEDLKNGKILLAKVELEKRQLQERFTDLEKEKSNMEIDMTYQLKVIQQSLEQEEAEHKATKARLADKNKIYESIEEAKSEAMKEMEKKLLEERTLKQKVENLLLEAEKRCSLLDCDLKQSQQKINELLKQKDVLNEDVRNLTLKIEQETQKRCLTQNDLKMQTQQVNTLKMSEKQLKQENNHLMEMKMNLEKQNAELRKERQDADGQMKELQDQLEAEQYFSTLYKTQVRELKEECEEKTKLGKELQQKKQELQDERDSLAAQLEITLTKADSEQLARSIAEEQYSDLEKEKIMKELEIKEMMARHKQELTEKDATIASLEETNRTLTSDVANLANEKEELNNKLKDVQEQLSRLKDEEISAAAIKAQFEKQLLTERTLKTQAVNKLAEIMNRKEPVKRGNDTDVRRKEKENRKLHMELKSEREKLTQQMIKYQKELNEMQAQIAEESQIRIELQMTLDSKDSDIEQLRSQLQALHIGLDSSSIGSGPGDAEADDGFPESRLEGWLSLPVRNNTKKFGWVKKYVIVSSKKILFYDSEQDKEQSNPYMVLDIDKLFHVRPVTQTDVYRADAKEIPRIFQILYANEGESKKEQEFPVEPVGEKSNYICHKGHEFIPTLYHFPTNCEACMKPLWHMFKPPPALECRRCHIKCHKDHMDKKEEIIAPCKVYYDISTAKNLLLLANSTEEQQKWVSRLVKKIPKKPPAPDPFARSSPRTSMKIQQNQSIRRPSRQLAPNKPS
Chain of ROCK-I (Q13464 whole entry, species assumed): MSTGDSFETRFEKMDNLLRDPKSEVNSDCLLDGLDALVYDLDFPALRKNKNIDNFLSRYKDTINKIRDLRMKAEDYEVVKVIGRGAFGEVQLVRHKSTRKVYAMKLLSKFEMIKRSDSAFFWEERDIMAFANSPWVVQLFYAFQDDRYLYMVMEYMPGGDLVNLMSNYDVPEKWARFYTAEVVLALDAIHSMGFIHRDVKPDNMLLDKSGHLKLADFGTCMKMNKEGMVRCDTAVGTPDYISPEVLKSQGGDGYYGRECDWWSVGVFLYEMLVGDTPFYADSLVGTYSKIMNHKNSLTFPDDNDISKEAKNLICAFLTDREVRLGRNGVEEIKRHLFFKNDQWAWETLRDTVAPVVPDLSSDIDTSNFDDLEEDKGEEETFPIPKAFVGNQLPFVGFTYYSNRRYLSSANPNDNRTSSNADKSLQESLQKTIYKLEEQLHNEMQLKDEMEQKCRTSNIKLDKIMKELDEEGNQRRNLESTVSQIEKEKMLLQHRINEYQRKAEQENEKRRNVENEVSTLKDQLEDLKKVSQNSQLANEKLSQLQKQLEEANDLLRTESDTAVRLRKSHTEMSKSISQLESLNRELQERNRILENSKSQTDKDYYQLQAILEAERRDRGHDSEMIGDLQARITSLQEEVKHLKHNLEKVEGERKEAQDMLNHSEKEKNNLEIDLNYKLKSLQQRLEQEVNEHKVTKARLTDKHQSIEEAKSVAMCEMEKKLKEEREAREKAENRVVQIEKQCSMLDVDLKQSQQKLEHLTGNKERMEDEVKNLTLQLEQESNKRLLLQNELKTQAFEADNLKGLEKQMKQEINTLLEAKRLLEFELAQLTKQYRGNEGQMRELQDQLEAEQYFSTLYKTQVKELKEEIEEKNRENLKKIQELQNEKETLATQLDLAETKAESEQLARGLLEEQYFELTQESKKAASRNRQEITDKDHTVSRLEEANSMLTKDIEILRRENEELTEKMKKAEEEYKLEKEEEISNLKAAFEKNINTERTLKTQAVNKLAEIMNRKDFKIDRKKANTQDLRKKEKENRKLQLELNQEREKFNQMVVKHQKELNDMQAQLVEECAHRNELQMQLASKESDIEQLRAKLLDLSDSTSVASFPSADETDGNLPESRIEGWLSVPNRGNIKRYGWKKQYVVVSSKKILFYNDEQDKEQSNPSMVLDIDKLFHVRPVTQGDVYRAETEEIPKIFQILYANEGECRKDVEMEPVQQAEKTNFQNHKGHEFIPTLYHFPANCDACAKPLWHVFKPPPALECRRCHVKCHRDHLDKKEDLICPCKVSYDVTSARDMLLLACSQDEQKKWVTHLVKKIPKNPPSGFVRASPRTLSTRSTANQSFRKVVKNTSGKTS
Chain of P450 2C9 (P11712 whole entry): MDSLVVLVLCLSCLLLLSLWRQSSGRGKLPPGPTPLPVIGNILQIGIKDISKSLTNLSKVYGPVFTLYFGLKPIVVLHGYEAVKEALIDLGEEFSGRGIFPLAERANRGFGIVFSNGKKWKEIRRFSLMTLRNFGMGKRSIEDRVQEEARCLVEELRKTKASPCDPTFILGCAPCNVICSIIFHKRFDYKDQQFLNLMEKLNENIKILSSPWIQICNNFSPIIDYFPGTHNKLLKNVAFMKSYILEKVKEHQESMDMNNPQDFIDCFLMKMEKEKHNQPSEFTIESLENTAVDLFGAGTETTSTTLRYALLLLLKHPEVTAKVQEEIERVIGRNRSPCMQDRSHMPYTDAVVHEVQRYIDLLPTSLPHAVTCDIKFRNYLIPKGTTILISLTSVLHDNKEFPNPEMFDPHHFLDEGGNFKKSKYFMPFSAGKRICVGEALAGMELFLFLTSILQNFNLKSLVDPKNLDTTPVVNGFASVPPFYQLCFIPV
Chain of Limk1 (P53667 285-638): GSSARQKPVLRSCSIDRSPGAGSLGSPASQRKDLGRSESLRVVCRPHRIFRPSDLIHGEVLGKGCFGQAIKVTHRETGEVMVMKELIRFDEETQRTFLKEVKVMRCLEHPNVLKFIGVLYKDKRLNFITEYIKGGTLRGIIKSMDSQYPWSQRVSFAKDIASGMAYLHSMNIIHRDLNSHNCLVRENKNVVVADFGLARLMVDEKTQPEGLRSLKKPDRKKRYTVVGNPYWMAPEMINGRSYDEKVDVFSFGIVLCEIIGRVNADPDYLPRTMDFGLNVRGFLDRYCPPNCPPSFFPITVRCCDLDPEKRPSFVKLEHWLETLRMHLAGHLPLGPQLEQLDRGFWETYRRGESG
Chain of P450 2D6 (P10635 whole entry): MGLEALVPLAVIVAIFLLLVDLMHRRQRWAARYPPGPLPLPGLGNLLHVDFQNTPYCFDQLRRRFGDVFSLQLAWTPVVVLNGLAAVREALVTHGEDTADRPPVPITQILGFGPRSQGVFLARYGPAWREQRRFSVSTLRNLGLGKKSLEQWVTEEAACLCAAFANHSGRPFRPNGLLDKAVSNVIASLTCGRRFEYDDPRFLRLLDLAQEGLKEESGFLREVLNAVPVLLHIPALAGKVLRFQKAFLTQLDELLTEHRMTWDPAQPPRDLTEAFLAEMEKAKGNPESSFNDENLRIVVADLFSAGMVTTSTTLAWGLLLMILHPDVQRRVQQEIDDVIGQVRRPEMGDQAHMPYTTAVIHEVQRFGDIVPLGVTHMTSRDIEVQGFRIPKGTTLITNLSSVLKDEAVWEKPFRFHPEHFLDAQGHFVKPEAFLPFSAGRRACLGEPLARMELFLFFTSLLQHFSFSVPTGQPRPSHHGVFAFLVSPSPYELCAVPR
Chain of P450 3A4 (P08684 whole entry): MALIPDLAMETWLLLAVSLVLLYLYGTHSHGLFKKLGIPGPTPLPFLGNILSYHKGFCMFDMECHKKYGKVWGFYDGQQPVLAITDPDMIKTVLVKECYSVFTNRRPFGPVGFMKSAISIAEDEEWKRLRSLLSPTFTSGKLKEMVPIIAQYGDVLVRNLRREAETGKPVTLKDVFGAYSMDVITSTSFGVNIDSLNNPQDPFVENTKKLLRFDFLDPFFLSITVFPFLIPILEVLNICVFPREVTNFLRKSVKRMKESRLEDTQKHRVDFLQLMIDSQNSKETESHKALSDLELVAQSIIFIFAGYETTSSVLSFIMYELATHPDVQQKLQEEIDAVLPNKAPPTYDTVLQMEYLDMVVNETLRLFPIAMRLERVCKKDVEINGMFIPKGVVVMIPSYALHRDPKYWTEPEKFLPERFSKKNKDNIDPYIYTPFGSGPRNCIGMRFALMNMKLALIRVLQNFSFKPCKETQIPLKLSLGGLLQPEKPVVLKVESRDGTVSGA
Chain of JNK3 (P53779 whole entry, species assumed): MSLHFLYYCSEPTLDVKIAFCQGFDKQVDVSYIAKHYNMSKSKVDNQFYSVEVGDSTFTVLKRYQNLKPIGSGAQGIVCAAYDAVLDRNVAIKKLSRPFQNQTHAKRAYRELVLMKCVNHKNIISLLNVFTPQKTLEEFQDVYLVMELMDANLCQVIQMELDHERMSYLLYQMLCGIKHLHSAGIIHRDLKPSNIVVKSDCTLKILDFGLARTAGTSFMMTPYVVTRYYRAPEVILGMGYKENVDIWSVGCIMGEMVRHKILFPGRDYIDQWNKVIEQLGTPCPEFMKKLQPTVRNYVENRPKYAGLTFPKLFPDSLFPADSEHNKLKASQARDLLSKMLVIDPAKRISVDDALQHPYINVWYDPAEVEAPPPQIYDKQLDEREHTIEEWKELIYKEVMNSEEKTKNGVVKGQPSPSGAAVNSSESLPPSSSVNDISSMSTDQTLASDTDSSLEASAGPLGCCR

Row | Compound | IC50 (ROCK-I) [nM] | P450 % inh. at 10 μM 2C9 (P450 2C9) [%] | P450 % inh. at 10 μM 2D6 (P450 2D6) [%] | P450 % inh. at 10 μM 3A4 (P450 3A4) [%] | Microsomal Stability t1/2 (min) Human [1] [min] | Microsomal Stability t1/2 (min) Rat ([2]; rat liver microsomes) [min] | AUC (iv) [3] [µM·h] | Cl (iv) [3] [mL/min/kg] | T1/2 (iv) [3] [min] | Cmax [3] [µM] | P450 % inh. at 10 μM 1A2 (P450 1A2; 10 μM) [%] | IC50 (ROCK-II; Table 4) [nM] | IC50 (JNK3) [nM] | X4 HIV infection (screen) (HIV-1(NL4-3)) | IC50 (Limk1; Table 8, read-out: LIMK1 IC50) [nM] | other results
1 | Cc1c[nH]c2ncnc(-c3ccc(NC(=O)Nc4cccc(C(=O)NC(C)C)c4)c(F)c3)c12 [Compound 7k, 3-(3-(2-Fluoro-4-(5-methyl-7H-pyrrolo[2,3-d]pyrimidin-4-yl)phenyl)ureido)-N-isopropylbenzamide] | 2390 | 35 | 13 | 32 | 27 | 55 | 5.5 | 7.1 | 90 | 5.1 | 29 |  |  |  |  | IC50 (ROCK-II; Table 2): 781 nM; Yd (iv) [3]: 0.7 L/kg; F (%) (po) [3]: 0%; IC50 (Limk1; read-out: Limk1 IC50): 18 nM
2 | Cc1c[nH]c2ncnc(-c3ccc(NC(=O)N(CCO)c4ccc(F)cc4)cc3)c12 [Compound 18e, 1-(4-Fluorophenyl)-1-(2-hydroxyethyl)-3-(4-(5-methyl-7H-pyrrolo[2,3-d]pyrimidin-4-yl)phenyl)urea] | 3920 | 13 | 3 | 25 | 44 | 52 |  |  |  |  | −4 | 3240 | > 10000 |  |  | 
3 | Cc1c[nH]c2ncnc(-c3ccc(NC(=O)N(CCO)c4cccc(Cl)c4)cc3)c12 [Compound 18g, 1-(3-Chlorophenyl)-1-(2-hydroxyethyl)-3-(4-(5-methyl-7H-pyrrolo[2,3-d]pyrimidin-4-yl)phenyl)urea] | 15000 | 31 | 2 | 42 |  |  |  |  |  |  |  | 11300 |  |  |  | Microsomal Stability t1/2 (min) Rat [2]: 20 min; IC50 ([4]; A7R5, read-out: Cofilin Phosphorylation In A7r5 Cells (IC50, nM)): 372 nM; P450 % inh. at 10 μM 1A2 (P450 1A2): −19/31/2/42%; IC50 (Limk1; [5]): 67 nM
4 | Cc1c[nH]c2ncnc(-c3ccc(NC(=O)N(CCO)c4ccc(Cl)cc4)cc3)c12 [Compound 18h, 1-(4-Chlorophenyl)-1-(2-hydroxyethyl)-3-(4-(5-methyl-7H-pyrrolo[2,3-d]pyrimidin-4-yl)phenyl)urea] | 5920 | 23 |  | 27 | >120 | 73 | 13.2 | 3.0 | 156 | 10.5 |  | 4360 | > 10000 |  |  | IC50 ([4]; A7R5, A7r5 cells, read-out: Cofilin Phosphorylation In A7r5 Cells (IC50)): ~100 nM
5 | Cc1ccc(N(CCO)C(=O)Nc2ccc(-c3ncnc4[nH]cc(C)c34)cc2)cc1 [Compound 18k, 1-(2-Hydroxyethyl)-3-(4-(5-methyl-7H-pyrrolo[2,3-d]pyrimidin-4-yl)phenyl)-1-p-tolylurea] | 7630 | 24 | −4 | 5 | 56 | 39 | 15.6 | 2.7 | 108 | 9.4 | −5 | 5930 | > 10000 |  |  | Yd (iv) [3]: 0.3 L/kg; F (%) (po) [3]: 24%; IC50 (Limk1; [5]): 37 nM
6 | COc1cccc(N(CCO)C(=O)Nc2ccc(-c3ncnc4[nH]cc(C)c34)cc2)c1 [Compound 18m, 1-(2-Hydroxyethyl)-1-(3-methoxyphenyl)-3-(4-(5-methyl-7H-pyrrolo[2,3-d]pyrimidin-4-yl)phenyl)urea] | 4320 | 17 | 3 | 44 | 38 | 21 |  |  |  |  |  | 3220 |  |  |  | P450 % inh. at 10 μM 1A2 (P450 1A2): 3/17/3/44%; IC50 (Limk1; [5]): 100 nM
7 | COc1ccc(N(CCO)C(=O)Nc2ccc(-c3ncnc4[nH]cc(C)c34)cc2)cc1 [Compound 18n, 1-(2-hydroxyethyl)-1-(4-methoxyphenyl)-3-(4-(5-methyl-7H-pyrrolo[2,3-d]pyrimidin-4-yl)phenyl)urea] | > 20000 |  |  |  | 56 | 40 | 19.4 | 2.1 | 132 | 10.6 |  | > 10000 | > 10000 |  |  | IC50 (Limk1; [5]): 53 nM
8 | Cc1[nH]c2ncnc(-c3ccc(NC(=O)N(CCO)c4ccc(Cl)cc4)c(F)c3)c2c1C [Compound 18s, 1-(4-Chlorophenyl)-3-(4-(5,6-dimethyl-7H-pyrrolo[2,3-d]pyrimidin-4-yl)-2-fluorophenyl)-1-(2-hydroxyethyl)urea] |  | 13 | 8 | 16 | 99 | 44 | 14.5 | 4.5 | 192 | 12.3 | 40 |  | > 10000 |  |  | Yd (iv) [3]: 0.5 L/kg; F (%) (po) [3]: 29%
9 | Cc1[nH]c2ncnc(-c3ccc(NC(=O)N(CCN)c4ccc(Cl)cc4)c(F)c3)c2c1C [Compound 18t, 1-(2-Amino-ethyl)-1-(4-chloro-phenyl)-3-[4-(5,6-dimethyl-7H-pyrrolo[2,3-d]pyrimidin-4-yl)-2-fluoro-phenyl]-urea] |  | 24 | 52 | −11 | >120 | >120 |  |  |  |  | 24 |  | > 10000 |  |  | 
10 | Cc1c[nH]c2ncnc(N3CCC(c4nc5cc(C#N)ccc5[nH]4)CC3)c12 [Compound R8212] |  |  |  |  |  |  |  |  |  |  |  |  |  | blocked | 44 ± 6 | 
11 | CC1(c2nc3ccc(C(=O)NC4CCC4)cc3[nH]2)CCN(c2ncnc3[nH]ccc23)CC1 [Compound R8482] |  |  |  |  |  |  |  |  |  |  |  |  |  | blocked | 41 ± 4 | 
12 | Cc1c[nH]c2ncnc(-c3ccc(-c4nc5ccc(C(=O)NC6CCCC6)cc5[nH]4)c(F)c3)c12 [Compound R8584] |  |  |  |  |  |  |  |  |  |  |  |  |  | blocked | 50 ± 7 | 
13 | CC(C)NC(=O)c1ccc2[nH]c(N3CCN(c4ncnc5[nH]cc(Cl)c45)C[C@@H]3C)nc2c1 [Compound R10543] |  |  |  |  |  |  |  |  |  |  |  |  |  | blocked | 5 ± 2 | 
14 | CCOC(=O)c1ccc2nc(N3CCN(c4ncnc5[nH]cc(Cl)c45)[C@H](C)C3)[nH]c2c1 [Compound R10659] |  |  |  |  |  |  |  |  |  |  |  |  |  | blocked | 45 ± 6 | 
